Residue numbers refer to the chain shown, from its start. Where two headings read alike, the source gives them in different places.
How the values were obtained:
RET(KD: 658-1114 G810R) = molecular target: T1, RET(KD: 658-1114 G810R) (Homo sapiens, UniProt P07949, G810R); test: HiBiT-Degradation, RET G810R degradation assay (Nano-Glo HiBiT Lytic), 293T.165 cells; type: cell-based; details: for Emax / DC50: 6.0 hours
T1 construct: 658-1114; expressed in transfected cells; host or cells: 293T.165 (293T cells, generated in-house)
T1 sequence (P07949 658-1114 G810R): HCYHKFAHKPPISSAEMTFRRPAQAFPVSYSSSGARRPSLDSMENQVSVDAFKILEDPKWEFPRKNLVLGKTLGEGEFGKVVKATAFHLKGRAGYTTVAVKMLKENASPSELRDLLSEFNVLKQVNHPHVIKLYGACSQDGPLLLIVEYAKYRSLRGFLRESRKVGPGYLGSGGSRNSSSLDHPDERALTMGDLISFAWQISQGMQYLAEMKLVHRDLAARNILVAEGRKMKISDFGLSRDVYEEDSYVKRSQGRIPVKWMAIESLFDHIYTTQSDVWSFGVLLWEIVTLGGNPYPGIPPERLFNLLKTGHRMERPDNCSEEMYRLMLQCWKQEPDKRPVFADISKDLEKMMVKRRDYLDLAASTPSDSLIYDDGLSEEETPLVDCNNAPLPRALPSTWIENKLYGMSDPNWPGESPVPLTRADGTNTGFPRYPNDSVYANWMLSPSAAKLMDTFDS
In short: (§1)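 HEK293T lines expressing HiBiT-tagged RET kinase domain, wild-type (293T.144) or G810R (293T.165), treated 6 h in duplicate, 11-point half-log series from 10 μM top. Lytic HiBiT luminescence read; DC50 and Emax (% protein remaining) from dose-response curves.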

RET (658-1114) = molecular target: T2, RET (658-1114) (Homo sapiens, UniProt P07949); test: HiBiT-Degradation, RET wild-type degradation assay (Nano-Glo HiBiT Lytic), 293T.144 cells; type: cell-based; details: for DC50 / Emax: 6.0 hours
T2 construct: 658-1114; expressed in transfected cells; host or cells: 293T.144 (293T cells, generated in-house)
T2 sequence (P07949 658-1114): T1 sequence (P07949 658-1114 G810R) with R153G
In short: as §1

[1] = % remaining protein, read-out: 293T.165 RET(KD: 658-1114 G810R) 6.0 hours (Emax)
[2] = half-maximal degradation concentration, read-out: 293T.165 RET(KD: 658-1114 G810R) 6.0 hours (DC50)
[3] = HiBiT-Degradation, read-out: 293T.165 RET(KD: 658-1114 G810R) 6.0 hours (DC50)
[4] = HiBiT-Degradation, read-out: 293T.144 RET (658-1114) 6.0 hours (DC50)
[5] = HiBiT-Degradation, read-out: 293T.144 RET (658-1114) 6.0 hours (Emax)
[6] = RET G810R, read-out: HiBiT-Degradation 293T.165 RET(KD: 658-1114 G810R) 6.0 hours (DC50)
[7] = RET G810R, read-out: HiBiT-Degradation 293T.165 RET(KD: 658-1114 G810R) 6.0 hours (Emax)
[8] = RET wild-type, read-out: HiBiT-Degradation 293T.144 RET (658-1114) 6.0 hours (DC50)
[9] = RET wild-type, read-out: HiBiT-Degradation 293T.144 RET (658-1114) 6.0 hours (Emax)
[10] = % remaining protein, read-out: 293T.144 RET (658-1114) 6.0 hours (Emax)
[11] = half-maximal degradation concentration, read-out: 293T.144 RET (658-1114) 6.0 hours (DC50)

SMILES	Emax (RET(KD: 658-1114 G810R); [1]) [%]	DC50 (RET(KD: 658-1114 G810R); [2]) [nM]	293T.165 RET(KD: 658-1114 G810R) 6.0 hours (Emax) (RET(KD: 658-1114 G810R); HiBiT-Degradation)	293T.165 RET(KD: 658-1114 G810R) 6.0 hours (IP) [nM] (RET(KD: 658-1114 G810R); HiBiT-Degradation)	DC50 (RET(KD: 658-1114 G810R); [3]) [nM]	293T.144 RET (658-1114) 6.0 hours (IP) [nM] (RET (658-1114); HiBiT-Degradation)	DC50 (RET (658-1114); [4]) [nM]	Emax (RET (658-1114); [5]) [%]	HiBiT-Degradation 293T.165 RET(KD: 658-1114 G810R) 6.0 hours (IP) [nM] (RET(KD: 658-1114 G810R); RET G810R)	DC50 (RET(KD: 658-1114 G810R); [6]) [nM]	Emax (RET(KD: 658-1114 G810R); [7]) [%]	HiBiT-Degradation 293T.144 RET (658-1114) 6.0 hours (IP) [nM] (RET (658-1114); RET wild-type)	DC50 (RET (658-1114); [8]) [nM]	Emax (RET (658-1114); [9]) [%]	293T.165 RET(KD: 658-1114 G810R) 6.0 hours (IP) [nM] (RET(KD: 658-1114 G810R))	293T.144 RET (658-1114) 6.0 hours (IP) [nM] (RET (658-1114))	Emax (RET (658-1114); [10]) [%]	DC50 (RET (658-1114); [11]) [nM]
CCC1(C(=O)NC2CCOCC2)CCN(c2ccc(-c3cc(-c4cnn([C@H]5CC[C@H](CCN6CCC(c7ccc(NC8CCC(=O)NC8=O)cc7F)CC6)CC5)c4)cn4ncc(C#N)c34)cn2)CC1 (stereo partly drawn) [Compound 40, 1-(5-(3-Cyano-6-(1-((trans)-4-(2-(4-(4-((2,6-dioxopiperidin-3-yl)amino)-2-fluorophenyl)piperidin-1-yl)ethyl)cyclohexyl)-1H-pyrazol-4-yl)pyrazolo[1,5-a]pyridin-4-yl)pyridin-2-yl)-4-ethyl-N-(tetrahydro-2H-pyran-4-yl)piperidine-4-carboxamide]	< 30	< 50	++++ (< 30% = ++++)	++++ (< 50 nM = ++++)	< 50	++++ (< 50 nM = ++++)	< 50	< 30										
N#Cc1cnn2cc(-c3cnn(C4CCN(C(=O)CN5CCC(c6ccc(NC7CCC(=O)NC7=O)cc6F)CC5)CC4)c3)cc(-c3ccc(N4CC5CC(C4)N5Cc4cccnc4)nc3)c12 (stereo not shown) [Compound 68, 6-[1-[1-[2-[4-[4-[(2,6-dioxo-3-piperidyl)amino]-2-fluoro-phenyl]-1-piperidyl]acetyl]-4-piperidyl]pyrazol-4-yl]-4-[6-[6-(3-pyridylmethyl)-3,6-diazabicyclo[3.1.1]heptan-3-yl]-3-pyridyl]pyrazolo[1,5-a]pyridine-3-carbonitrile]	< 30	< 50							++++ (< 50 nM = ++++)	< 50	< 30	++++ (< 50 nM = ++++)	< 50	< 30				
N#Cc1cnn2cc(-c3ccc(N4CCN(C(=O)CN5CCC(c6ccc(NC7CCC(=O)NC7=O)cc6F)CC5)CC4)cc3)nc(-c3ccc(N4CC5CC(C4)N5Cc4ccccc4)nc3)c12 (stereo not shown) [Compound 54, 4-[6-(6-benzyl-3,6-diazabicyclo[3.1.1]heptan-3-yl)-3-pyridyl]-6-[4-[4-[2-[4-[4-[(2,6-dioxo-3-piperidyl)amino]-2-fluoro-phenyl]-1-piperidyl]acetyl]piperazin-1-yl]phenyl]pyrazolo[1,5-a]pyrazine-3-carbonitrile]	< 30	< 100	++++ (< 30% = ++++)	++++ (< 50 nM = ++++)	< 100	++++ (< 50 nM = ++++)	< 50	< 30										
CCC1(C(=O)NC(C)C)CCN(c2ccc(-c3cc(-c4cnn([C@H]5CC[C@H](N6CCC(c7ccc(N[C@@H]8CCC(=O)NC8=O)cc7F)CC6)CC5)c4)cn4ncc(C#N)c34)cn2)CC1 (single isomer, unassigned) [Compound 195]	< 30	< 50													++++ (<50 nM = ++++)	++++ (<50 nM = ++++)	< 30	< 50
CC(=O)N1CCN(c2ccc(-c3nc(-c4ccc(N5CCN(C(=O)CN6CCC(c7ccc(NC8CCC(=O)NC8=O)cc7)CC6)CC5)cc4)cn4ncc(C#N)c34)cn2)CC1 (stereo not shown) [Compound 27, 4-(6-(4-acetylpiperazin-1-yl)pyridin-3-yl)-6-(4-(4-(2-(4-(4-((2,6-dioxopiperidin-3-yl)amino)phenyl)piperidin-1-yl)acetyl)piperazin-1-yl)phenyl)pyrazolo[1,5-a]pyrazine-3-carbonitrile]	< 30	< 50	++++ (< 30% = ++++)	++++ (< 50 nM = ++++)	< 50	++++ (< 50 nM = ++++)	< 50	< 30										
N#Cc1cnn2cc(-c3ccc(N4CCN(C(=O)CN5CCC(c6ccc(NC7CCC(=O)NC7=O)cc6)CC5)CC4)cc3)cc(-c3ccc(N4CCN(C(=O)Cc5ccc(F)cn5)CC4)nc3)c12 (stereo not shown) [Compound 74, 6-[4-[4-[2-[4-[4-[(2,6-dioxo-3-piperidyl)amino]phenyl]-1-piperidyl]acetyl]piperazin-1-yl]phenyl]-4-[6-[4-[2-(5-fluoro-2-pyridyl)acetyl]piperazin-1-yl]-3-pyridyl]pyrazolo[1,5-a]pyridine-3-carbonitrile]	< 30	< 50							++++ (< 50 nM = ++++)	< 50	< 30	++++ (< 50 nM = ++++)	< 50	< 30				
CCC1(C(=O)NC(C)C)CCN(c2ccc(-c3nc(-c4cnn(C5CCN(CC6(O)CCN(c7ccc(NC8CCC(=O)NC8=O)cc7F)CC6)CC5)c4)cn4ncc(C#N)c34)cn2)CC1 (stereo not shown) [Compound 118, 1-(5-(3-cyano-6-(1-(1-((1-(4-((2,6-dioxopiperidin-3-yl)amino)-2-fluorophenyl)-4-hydroxypiperidin-4-yl)methyl)piperidin-4-yl)-1H-pyrazol-4-yl)pyrazolo[1,5-a]pyrazin-4-yl)pyridin-2-yl)-4-ethyl-N-isopropylpiperidine-4-carboxamide]	< 30	< 50													++++ (<50 nM = ++++)	++++ (<50 nM = ++++)	< 30	< 50
CCC1(C(=O)NC(C)C)CCN(c2ccc(-c3nc(-c4cnn([C@H]5CC[C@H](N6CCC(c7ccc(N[C@@H]8CCC(=O)NC8=O)cc7F)CC6)CC5)c4)cn4ncc(C#N)c34)cn2)CC1 (single isomer, unassigned) [Compound 124]	< 30	< 50													++++ (<50 nM = ++++)	++++ (<50 nM = ++++)	< 30	< 50
